Results published in patent US20250115620A1, “BRIDGED TRICYCLIC CARBAMOYLPYRIDONE COMPOUNDS AND USES THEREOF” (Gilead Sciences, Inc., priority 2022, published 2025).
Where two headings read alike, the source gives them in different places.

Experiments:
HIV-1 (IIIB) = assay: microbe, parasite or virus in culture; assay type: cell-based; conditions: Human immunodeficiency virus 1, IIIB, MT4, 120 h, HIV-1 (IIIB) in MT-4 cells, 5 days incubation, Cell Titer Glo; read-out: MT4 EC50
pLAI reporter virus = assay: microbe, parasite or virus in culture; assay type: cell-based, HIV; conditions: Human immunodeficiency virus 1, MT4, 72 h
in vitro = conditions: human, uninfected MT-4 cells

C[C@H]1CC[C@@]2(ON=C(CF)[C@@H]2O)[C@H]2CN1C(=O)c1c(O)c(=O)c(C(=O)NCc3ccc(F)cc3F)cn12 [Example 89, (3′S,4S,5R,7′R)—N-(2,4-difluorobenzyl)-3-(fluoromethyl)-4,12′-dihydroxy-3′-methyl-1′,11′-dioxo-1′,4′,5′,11′-tetrahydro-3′H,4H,7′H-spiro[isoxazole-5,6′-[2,7]methanopyrido[1,2-a][1,4]diazonine]-10′-carboxamide]
EC50 (HIV-1 (IIIB)): 1.3 nM | EC50 (pLAI reporter virus; read-out: RLUC 50% HS EC50): 63.8 nM | EC50 (pLAI reporter virus; read-out: RLUC CCM EC50): 0.4 nM | CC50 at 5 days (in vitro): ≥ 50000 nM

CC1=NO[C@@]2(CC[C@H](C)N3C[C@H]2n2cc(C(=O)NCc4ccc(F)cc4F)c(=O)c(O)c2C3=O)O1 [Example 91, (3′S,5R,7′R)—N-(2,4-difluorobenzyl)-12′-hydroxy-3,3′-dimethyl-1′,11′-dioxo-1′,4′,5′,11′-tetrahydro-3′H,7′H-spiro[[1,4,2]dioxazole-5,6′-[2,7]methanopyrido[1,2-a][1,4]diazonine]-10′-carboxamide]
EC50 (HIV-1 (IIIB)): 1.4 nM | EC50 (pLAI reporter virus; read-out: RLUC 50% HS EC50): 158 nM | EC50 (pLAI reporter virus; read-out: RLUC CCM EC50): 0.2 nM | CC50 at 5 days (in vitro): 20000 nM

CC1=NO[C@@]2(CC[C@H](C)N3C[C@H]2n2cc(C(=O)NCc4c(F)cc(F)cc4F)c(=O)c(O)c2C3=O)O1 [Example 92, (3′S,5R,7′R)-12′-hydroxy-3,3′-dimethyl-1′,11′-dioxo-N-(2,4,6-trifluorobenzyl)-1′,4′,5′,11′-tetrahydro-3′H,7′H-spiro[[1,4,2]dioxazole-5,6′-[2,7]methanopyrido[1,2-a][1,4]diazonine]-10′-carboxamide]
EC50 (HIV-1 (IIIB)): 0.7 nM | EC50 (pLAI reporter virus; read-out: RLUC 50% HS EC50): 409 nM | EC50 (pLAI reporter virus; read-out: RLUC CCM EC50): 0.2 nM | CC50 at 5 days (in vitro): 24900 nM

CCC1=NO[C@@]2(CC[C@H](C)N3C[C@H]2n2cc(C(=O)NCc4c(F)cc(F)cc4F)c(=O)c(O)c2C3=O)O1 [Example 93, (3′S,5R,7′R)-3-ethyl-12′-hydroxy-3′-methyl-1′,11′-dioxo-N-(2,4,6-trifluorobenzyl)-1′,4′,5′,11′-tetrahydro-3′H,7′H-spiro[[1,4,2]dioxazole-5,6′-[2,7]methanopyrido[1,2-a][1,4]diazonine]-10′-carboxamide]
EC50 (HIV-1 (IIIB)): 0.7 nM | EC50 (pLAI reporter virus; read-out: RLUC 50% HS EC50): 622 nM | EC50 (pLAI reporter virus; read-out: RLUC CCM EC50): 0.2 nM | CC50 at 5 days (in vitro): 13600 nM

CCC1=NO[C@@]2(CC[C@H](C)N3C[C@H]2n2cc(C(=O)NCc4ccc(F)cc4F)c(=O)c(O)c2C3=O)O1 [Example 94, (3′S,5R,7′R)—N-(2,4-difluorobenzyl)-3-ethyl-12′-hydroxy-3′-methyl-1′,11′-dioxo-1′,4′,5′,11′-tetrahydro-3′H,7′H-spiro[[1,4,2]dioxazole-5,6′-[2,7]methanopyrido[1,2-a][1,4]diazonine]-10′-carboxamide]
EC50 (HIV-1 (IIIB)): 1 nM | EC50 (pLAI reporter virus; read-out: RLUC 50% HS EC50): 684 nM | EC50 (pLAI reporter virus; read-out: RLUC CCM EC50): 0.2 nM | CC50 at 5 days (in vitro): 30200 nM

COC1=NO[C@@]2(CCCN3C[C@H]2n2cc(C(=O)NCc4c(F)cc(F)cc4F)c(=O)c(O)c2C3=O)C1 [Example 96, (5S,7′R)-12′-hydroxy-3-methoxy-1′,11′-dioxo-N-(2,4,6-trifluorobenzyl)-1′,4′,5′,11′-tetrahydro-3′H,4H,7′H-spiro[isoxazole-5,6′-[2,7]methanopyrido[1,2-a][1,4]diazonine]-10′-carboxamide]
EC50 (HIV-1 (IIIB)): 1.1 nM | EC50 (pLAI reporter virus; read-out: RLUC 50% HS EC50): 1.2 nM | EC50 (pLAI reporter virus; read-out: RLUC CCM EC50): 0.2 nM | CC50 at 5 days (in vitro): 31400 nM

COC1=NO[C@@]2(CC[C@@H](C)N3C[C@H]2n2cc(C(=O)NCc4c(F)cc(F)cc4F)c(=O)c(O)c2C3=O)C1 [Example 97, (3′R,5S,7′R)-12′-hydroxy-3-methoxy-3′-methyl-1′,11′-dioxo-N-(2,4,6-trifluorobenzyl)-1′,4′,5′,11′-tetrahydro-3′H,4H,7′H-spiro[isoxazole-5,6′-[2,7]methanopyrido[1,2-a][1,4]diazonine]-10′-carboxamide]
EC50 (HIV-1 (IIIB)): 2.5 nM | EC50 (pLAI reporter virus; read-out: RLUC 50% HS EC50): 1.8 nM | EC50 (pLAI reporter virus; read-out: RLUC CCM EC50): 0.5 nM | CC50 at 5 days (in vitro): 10400 nM

CC1=NO[C@@]2(CC[C@@H](C)N3C[C@H]2n2cc(C(=O)NCc4c(F)cc(F)cc4F)c(=O)c(O)c2C3=O)C1 [Example 98, (3′R,5S,7′R)-12′-hydroxy-3,3′-dimethyl-1′,11′-dioxo-N-(2,4,6-trifluorobenzyl)-1′,4′,5′,11′-tetrahydro-3′H,4H,7′H-spiro[isoxazole-5,6′-[2,7]methanopyrido[1,2-a][1,4]diazonine]-10′-carboxamide]
EC50 (HIV-1 (IIIB)): 3 nM | EC50 (pLAI reporter virus; read-out: RLUC 50% HS EC50): 7.4 nM | EC50 (pLAI reporter virus; read-out: RLUC CCM EC50): 0.5 nM | CC50 at 5 days (in vitro): 12700 nM

COC1=NO[C@@]2(CC[C@H](CF)N3C[C@H]2n2cc(C(=O)NCc4c(F)cc(F)cc4F)c(=O)c(O)c2C3=O)C1 [Example 99, (3′R,5S,7′R)-3′-(fluoromethyl)-12′-hydroxy-3-methoxy-1′,11′-dioxo-N-(2,4,6-trifluorobenzyl)-1′,4′,5′,11′-tetrahydro-3′H,4H,7′H-spiro[isoxazole-5,6′-[2,7]methanopyrido[1,2-a][1,4]diazonine]-10′-carboxamide]
EC50 (HIV-1 (IIIB)): 1.5 nM | EC50 (pLAI reporter virus; read-out: RLUC 50% HS EC50): 19.7 nM | EC50 (pLAI reporter virus; read-out: RLUC CCM EC50): 0.2 nM | CC50 at 5 days (in vitro): 36500 nM

COC1=NO[C@@]2(CC[C@H](CF)N3C[C@H]2n2cc(C(=O)NCc4ccc(F)cc4F)c(=O)c(O)c2C3=O)C1 [Example 100, (3′R,5S,7′R)—N-(2,4-difluorobenzyl)-3′-(fluoromethyl)-12′-hydroxy-3-methoxy-1′,11′-dioxo-1′,4′,5′,11′-tetrahydro-3′H,4H,7′H-spiro[isoxazole-5,6′-[2,7]methanopyrido[1,2-a][1,4]diazonine]-10′-carboxamide]
EC50 (HIV-1 (IIIB)): 1.5 nM | EC50 (pLAI reporter virus; read-out: RLUC 50% HS EC50): 13.5 nM | EC50 (pLAI reporter virus; read-out: RLUC CCM EC50): 0.3 nM | CC50 at 5 days (in vitro): ≥ 50000 nM

C[C@H]1CC[C@]2(CC(=O)NO2)[C@H]2CN1C(=O)c1c(O)c(=O)c(C(=O)NCc3c(F)cc(F)cc3F)cn12 [Example 101, (3′S,5S,7′R)-12′-hydroxy-3′-methyl-1′,3,11′-trioxo-N-(2,4,6-trifluorobenzyl)-1′,4′,5′,11′-tetrahydro-3′H,7′H-spiro[isoxazolidine-5,6′-[2,7]methanopyrido[1,2-a][1,4]diazonine]-10′-carboxamide]
EC50 (HIV-1 (IIIB)): 98.1 nM | EC50 (pLAI reporter virus; read-out: RLUC 50% HS EC50): 408 nM | EC50 (pLAI reporter virus; read-out: RLUC CCM EC50): 34 nM | CC50 at 5 days (in vitro): ≥ 50000 nM

C[C@H]1CC[C@@]2(CC(=O)N(Cc3ccc(F)cc3)O2)[C@H]2CN1C(=O)c1c(O)c(=O)c(C(=O)NCc3c(F)cc(F)cc3F)cn12 [Example 102, (3′S,5R,7′R)-2-(4-fluorobenzyl)-12′-hydroxy-3′-methyl-1′,3,11′-trioxo-N-(2,4,6-trifluorobenzyl)-1′,4′,5′,11′-tetrahydro-3′H,7′H-spiro[isoxazolidine-5,6′-[2,7]methanopyrido[1,2-a][1,4]diazonine]-10′-carboxamide]
EC50 (HIV-1 (IIIB)): 11.5 nM | EC50 (pLAI reporter virus; read-out: RLUC 50% HS EC50): 30 nM | EC50 (pLAI reporter virus; read-out: RLUC CCM EC50): 2 nM | CC50 at 5 days (in vitro): 8790 nM

C[C@H]1CC[C@]2(CC(=O)N(Cc3ccc4c(cnn4C)c3)O2)[C@H]2CN1C(=O)c1c(O)c(=O)c(C(=O)NCc3c(F)cc(F)cc3F)cn12 [Example 103, (3′S,5S,7′R)-12′-hydroxy-3′-methyl-2-((1-methyl-1H-indazol-5-yl)methyl)-1′,3,11′-trioxo-N-(2,4,6-trifluorobenzyl)-1′,4′,5′,11′-tetrahydro-3′H,7′H-spiro[isoxazolidine-5,6′-[2,7]methanopyrido[1,2-a][1,4]diazonine]-10′-carboxamide]
EC50 (HIV-1 (IIIB)): 1.5 nM | EC50 (pLAI reporter virus; read-out: RLUC 50% HS EC50): 0.4 nM | EC50 (pLAI reporter virus; read-out: RLUC CCM EC50): 0.2 nM | CC50 at 5 days (in vitro): ≥ 50000 nM

C[C@H]1CC[C@]2(CC(=O)N(Cc3cnn(C)n3)O2)[C@H]2CN1C(=O)c1c(O)c(=O)c(C(=O)NCc3c(F)cc(F)cc3F)cn12 [Example 104, (3′S,5S,7′R)-12′-hydroxy-3′-methyl-2-((2-methyl-2H-1,2,3-triazol-4-yl)methyl)-1′,3,11′-trioxo-N-(2,4,6-trifluorobenzyl)-1′,4′,5′,11′-tetrahydro-3′H,7′H-spiro[isoxazolidine-5,6′-[2,7]methanopyrido[1,2-a][1,4]diazonine]-10′-carboxamide]
EC50 (HIV-1 (IIIB)): 2.6 nM | EC50 (pLAI reporter virus; read-out: RLUC 50% HS EC50): 0.3 nM | EC50 (pLAI reporter virus; read-out: RLUC CCM EC50): 0.9 nM | CC50 at 5 days (in vitro): ≥ 50000 nM

C[C@H]1CC[C@]2(CC(=O)N(CCc3ccccc3)O2)[C@H]2CN1C(=O)c1c(O)c(=O)c(C(=O)NCc3c(F)cc(F)cc3F)cn12 [Example 105, (3′S,5S,7′R)-12′-hydroxy-3′-methyl-1′,3,11′-trioxo-2-phenethyl-N-(2,4,6-trifluorobenzyl)-1′,4′,5′,11′-tetrahydro-3′H,7′H-spiro[isoxazolidine-5,6′-[2,7]methanopyrido[1,2-a][1,4]diazonine]-10′-carboxamide]
EC50 (HIV-1 (IIIB)): 1.2 nM | EC50 (pLAI reporter virus; read-out: RLUC 50% HS EC50): 15.5 nM | EC50 (pLAI reporter virus; read-out: RLUC CCM EC50): 0.3 nM | CC50 at 5 days (in vitro): ≥ 50000 nM

C[C@H]1CC[C@]2(CC(=O)N(Cc3cccc4ccccc34)O2)[C@H]2CN1C(=O)c1c(O)c(=O)c(C(=O)NCc3c(F)cc(F)cc3F)cn12 [Example 106, (3′S,5S,7′R)-12′-hydroxy-3′-methyl-2-(naphthalen-1-ylmethyl)-1′,3,11′-trioxo-N-(2,4,6-trifluorobenzyl)-1′,4′,5′,11′-tetrahydro-3′H,7′H-spiro[isoxazolidine-5,6′-[2,7]methanopyrido[1,2-a][1,4]diazonine]-10′-carboxamide]
EC50 (HIV-1 (IIIB)): 0.9 nM | EC50 (pLAI reporter virus; read-out: RLUC 50% HS EC50): 64.2 nM | EC50 (pLAI reporter virus; read-out: RLUC CCM EC50): 0.2 nM | CC50 at 5 days (in vitro): ≥ 50000 nM

C[C@H]1CC[C@]2(CC(=O)N(Cc3ccc4ccccc4c3)O2)[C@H]2CN1C(=O)c1c(O)c(=O)c(C(=O)NCc3c(F)cc(F)cc3F)cn12 [Example 107, (3′S,5S,7′R)-12′-hydroxy-3′-methyl-2-(naphthalen-2-ylmethyl)-1′,3,11′-trioxo-N-(2,4,6-trifluorobenzyl)-1′,4′,5′,11′-tetrahydro-3′H,7′H-spiro[isoxazolidine-5,6′-[2,7]methanopyrido[1,2-a][1,4]diazonine]-10′-carboxamide]
EC50 (HIV-1 (IIIB)): 0.8 nM | EC50 (pLAI reporter virus; read-out: RLUC 50% HS EC50): 10.2 nM | EC50 (pLAI reporter virus; read-out: RLUC CCM EC50): 0.3 nM | CC50 at 5 days (in vitro): ≥ 50000 nM
